Patent US8802596B2, “Multi-functional ionic liquid compositions for overcoming polymorphism and imparting improved properties for active pharmaceutical, biological, nutritional, and energetic ingredients” (Board of Trustees of the University of Alabama, priority 2005, dated 2014)
Entries after “also recorded” stand apart in the source; their conditions may differ.

What was measured:
[1] = Thermal stability (thermalgravimetric analysis, TGA); format: physicochemical; conditions: for Tonset / Tonset5%: TGA; for Tonset(5%) - onset temperature for 5% of the decomposition / Td - temperature of total decomposition / Tonset - onset temperature of the decomposition: Table 2, no unit in table (temperature is in ° C.)
[2] = tested on: S. aureus, E. faecium, E. coli, C. albicans; assay: Average value of MIC / MBC over the four cultures; format: cell-based; conditions: for MBC Average value / MIC Average value: average over S. aureus, E. faecium, E. coli, C. albicans; for Biological activity compared with the starting quaternary ammonium chloride (average MIC and MBC): in words, refers to Tables 3 and 4
Description: (§1) In the biological activity measurements (tests) following bacteria were used: Staphylococcus aureus ATCC 6538, Enterococcus faecium ATCC 49474, Escherichia coli ATCC 25922 and fungi Candida albicans ATCC 10231.
(§2) Microbiological activity tests were performed using dissolution method. Determinations were performed on liquid base (background): Mueller-Hinton for bacteria and Sabouraud for fungi. Starting solution had the concentration of 1 g/cm^3. From this solution, all other solutions (lower concentrations) were prepared. To those solutions, 0.1 cm^3 of the suspensions of standard microorganisms at a concentration of 10^6 cfu cm^3 were added. The samples with bacteria were incubated for 24 h at the temperature of 37° C., and with fungi there were incubated for 48 h at the temperature of 22° C. After incubation time the MIC, Minimal Inhibitory Concentration, minimal concentration of the investigated compound at which the growth of the microorganisms is stopped (visually), was specified (recorded) for every sample. To define the MBC, Minimal Bactericidal Concentration, additionally to each solution the 10^−6 cm^3 of the inactivator was added on the base (background) (0.3% lecithin, 3% polysorbate 80 and 0.1% L-cysteine). The samples with bacteria were incubated for 48 h in the temperature of 37° C. The fungi samples were incubated for 5 days at the temperature of 22° C. MBC values were defined (specified) as the concentration at which the level of the reduction of the microorganisms was not lower than 99.99%.

[3] = tested on: Candida albicans ATCC 10231; assay: Microbiological activity test (dilution method), MIC and MBC; format: cell-based
Description: as §1, §2

[4] = tested on: Enterococcus faecium ATCC 49474; assay: as above; format: cell-based
Description: as §1, §2

[5] = tested on: Staphylococcus aureus ATCC 6538; assay: as above; format: cell-based
Description: as §1, §2

[6] = tested on: Escherichia coli ATCC 25922; assay: as above; format: cell-based
Description: as §1, §2

[7] = tested on: proteins in the body; conditions: cited from earlier work
[8] = background statement, in words; cited from earlier work
[9] = in words
[10] = tested on: Swiss-Webster male mice; conditions: tail dipped 60 seconds in DMSO solution, 1 mM and 100 mM; 47.5° C. water bath; 15, 30, 60, 120 minutes; versus lidocaine hydrochloride
Description: The rat tail flick test is used to determine the local anesthetic ability of lidocaine docusate compared with lidocaine hydrochloride. The rat is immobilized in a restraining sock, so that the tail is only exposed. The tail is dipped into hot water and the number of times the rat flicks its tail is recorded. When the anesthetic is applied, the rat's tail should be numb therefore it will not feel the hot water and the number of tail flicks should decrease.
For this test Swiss-Webster male mice were used. They were habituated in a restraining sock 3 times during a 10 day period. A baseline tail flick was determined for each rat in 47.5° C. water bath. […] The number of tail flicks was determined at 15, 30, 60, and 120 minutes in the 47.5° C. water bath. […] Using the following equation, one can determine the % MPE at each time for the two compounds in question. % MPE=(TFi−BL)/(10−BL)*100 • TFi=latency to withdraw tail from hot water • BL=baseline withdrawal time without the drug

[11] = C. albicans, incubated 48 h at 22° C., Sabouraud
[12] = C. albicans, reduction not lower than 99.99%, 5 days at 22° C.
[13] = E. faecium, incubated 24 h at 37° C., Mueller-Hinton
[14] = E. faecium, reduction not lower than 99.99%, 48 h at 37° C.
[15] = S. aureus, incubated 24 h at 37° C., Mueller-Hinton
[16] = S. aureus, reduction not lower than 99.99%, 48 h at 37° C.
[17] = E. coli, incubated 24 h at 37° C., Mueller-Hinton
[18] = E. coli, reduction not lower than 99.99%, 48 h at 37° C.

`CCCCCCCCCCCCOC[N+](C)(C)CCOC(C)=O.O=C([O-])c1ccccc1` [(2-acetoxyethyl)dodecyloxymethyldimethylammonium Benzoate] gave a Tonset [1] of 122 °C.
Work on `CCCCCCCOC[N+](C)(C)CCOC(C)=O.O=C([O-])c1ccccc1` [(2-acetoxyethyl)heptyloxymethyldimethylammonium benzoate] yielded a Tonset [1] of 120 °C.
`CCCCCCCCCCCOC[N+](C)(C)CCO.O=C([O-])c1ccccc1` [(2-hydroxyethyl)dimethylundecyloxymethylammonium benzoate] gave a Tonset [1] of 127 °C.
With `CCCCCCCCCC[N+](C)(C)CCCCCCCCCC.[Cl-]` [DDAC, didecyldimethylammonium chloride, reference compound] the MBC ([2]; read-out: MBC Average value) was 27.4 µg/mL, the MIC ([2]; read-out: MIC Average value) was 5.5 µg/mL and the MIC ([3]; Candida albicans, ATCC10231, 48 h) was 8 µg/mL. The MBC ([3]; Candida albicans, ATCC10231, 120 h) was 16 µg/mL, the MIC ([4]; Enterococcus faecium, ATCC49474, 24 h) was 4 µg/mL and the MBC ([4]; Enterococcus faecium, ATCC49474, 48 h) was 31.2 µg/mL. For the same compound, the MIC ([5]; Staphylococcus aureus, ATCC6538, 24 h) was 2 µg/mL, the MBC ([5]; Staphylococcus aureus, ATCC6538, 48 h) was 31.2 µg/mL and the MIC ([6]; Escherichia coli, ATCC25922, 24 h) was 8 µg/mL. It also gave an MBC ([6]; Escherichia coli, ATCC25922, 48 h) of 31.2 µg/mL.
Compound `CCCCCCCCCC[N+](C)(C)CCCCCCCCCC.CCCCCCOC(=O)CC(C(=O)OCCCCCC)S(=O)(=O)O` (stereo not drawn) [Didecyldimethylammonium Colawet MA-80] has a Tonset [1] of 226 °C and a Tonset5% [1] of 218 °C.
With `CCCCCCCCCC[N+](C)(C)CCCCCCCCCC.CCN1CCN(C(=O)NC(C(=O)NC2C(=O)N3C2SC(C)(C)C3C(=O)[O-])c2ccccc2)C(=O)C1=O` (stereo not drawn) [Didecyldimethylammonium Piperacillin] the Tonset [1] was 205 °C and the Tonset5% [1] was 181 °C.
In the case of `CC([O-])=NS(=O)(=O)c1ccc(N)cc1.CCCCCCCCCC[N+](C)(C)CCCCCCCCCC` [Didecyldimethylammonium Sulfacetamide, didecyldimethylammonium (DDA) sulfacetamide], the Tonset [1] is reported as 200.2 °C and the Tonset5% [1] is reported as 183.3 °C.
With `CCCCCCCCCCCCCCCC[n+]1ccccc1.CCCCCCOC(=O)CC(C(=O)OCCCCCC)S(=O)(=O)[O-]` (stereo not drawn) [Hexadecylpyridinium Colawet MA-80] the Tonset [1] was 262 °C and the Tonset5% [1] was 248 °C.
For `CC(=O)NS(=O)(=O)c1ccc(N)cc1.CCCCCCCCCCCCCCCC[n+]1ccccc1` [Hexadecylpyridinium Sulfacetamide, hexadecylpyridinium sulfacetamide], the Tonset [1] was 219 °C and the Tonset5% [1] was 211 °C.
In the case of `CCC(C)n1ncn(-c2ccc(N3CCN(c4ccc(OCC5COC(Cn6cncn6)(c6ccc(Cl)cc6Cl)O5)cc4)CC3)cc2)c1=O` (stereo not drawn) [Itraconazole, itraconazole], the “Drug bound to proteins in the body” value [7] is given as 99.8%, the “Solubility in organic solvents” value [8] is given as “slightly soluble in alcohol; also recorded: freely soluble in dichloromethane” and the Solubility in water [8] is given as “insoluble in water”.
For `CC1=CC(=O)[N-]S(=O)(=O)O1.CCCCCCCCCCCC[N+](C)(C)Cc1ccccc1` [[BA][Ace], benzalkonium acesulfamate], the “MBC Average value” [2] was 54.7 ppm, the “MIC Average value” [2] was 14.8 ppm and the “Biological activity compared with the starting quaternary ammonium chloride (average MIC and MBC)” value [2] was “high activity of the salt, slightly lower than that of the starting benzalkonium chloride”. It also gave an MIC [3, 11] of 16 ppm, an MBC [3, 12] of 31.2 ppm and an MIC [4, 13] of 8 ppm. For the same compound, the MBC [4, 14] was 31.2 ppm, the MIC [5, 15] was 4 ppm and the MBC [5, 16] was 31.2 ppm. For the same compound, the MIC [6, 17] was 31.2 ppm, the MBC [6, 18] was 125 ppm and the “Tonset(5%) - onset temperature for 5% of the decomposition” value (“Tonset(5%) - onset temperature” for short) [1] was 186.
In the case of `CCCCCCCCCCCC[N+](C)(C)Cc1ccccc1.O=C1[N-]S(=O)(=O)c2ccccc21` [[BA][Sac], benzalkonium saccharinate], the “MBC Average value” [2] is reported as 35.2 ppm, the “MIC Average value” [2] is reported as 11 ppm and the MIC [3, 11] is reported as 16 ppm. It also gave an MBC [3, 12] of 31.2 ppm, an MIC [4, 13] of 8 ppm and an MBC [4, 14] of 16 ppm. For the same compound, the MIC [5, 15] was 4 ppm, the MBC [5, 16] was 31.2 ppm and the MIC [6, 17] was 16 ppm. The MBC [6, 18] was 62.5 ppm, the “Td - temperature of total decomposition” value [1] was 227 and the “Tonset - onset temperature of the decomposition” value (from here on “Tonset - onset temperature”) [1] was 206. The “Tonset(5%) - onset temperature” value [1] was 176.
With `CC1=CC([O-])=NS(=O)(=O)O1.CCCCCCCCCC[N+](C)(C)CCCCCCCCCC` [[DDA][Ace], didecyldimethylammonium acesulfamate] the “MBC Average value” [2] was 31.4 ppm, the “MIC Average value” [2] was 12 ppm and the “Biological activity compared with the starting quaternary ammonium chloride (average MIC and MBC)” value [2] was “only slight difference in the biological activity”. It also gave an MIC [3, 11] of 16 ppm, an MBC [3, 12] of 16 ppm and an MIC [4, 13] of 8 ppm. It also gave an MBC [4, 14] of 31.2 ppm, an MIC [5, 15] of 8 ppm and an MBC [5, 16] of 16 ppm. For the same compound, the MIC [6, 17] was 16 ppm, the MBC [6, 18] was 62.5 ppm and the “Td - temperature of total decomposition” value [1] was 245. The “Tonset - onset temperature” value [1] was 201 and the “Tonset(5%) - onset temperature” value [1] was 182.
In the case of `CCCCCCCCCC[N+](C)(C)CCCCCCCCCC.O=C1[N-]S(=O)(=O)c2ccccc21` [[DDA][Sac], Didecyldimethylammonium Saccharinate], the “MBC Average value” [2] is reported as 27.6 ppm, the “MIC Average value” [2] is reported as 11 ppm and the “Biological activity compared with the starting quaternary ammonium chloride (average MIC and MBC)” value [2] is reported as “high in comparison with starting material”. The MIC [3, 11] was 16 ppm, the MBC [3, 12] was 16 ppm and the MIC [4, 13] was 8 ppm. The MBC [4, 14] was 16 ppm, the MIC [5, 15] was 4 ppm and the MBC [5, 16] was 62.5 ppm. For the same compound, the MIC [6, 17] was 16 ppm, the MBC [6, 18] was 16 ppm and the “Td - temperature of total decomposition” value [1] was 221. The “Tonset - onset temperature” value [1] was 211 and the “Tonset(5%) - onset temperature” value [1] was 184.
With `CCCCCCCCCC[N+](C)(C)CCCCCCCCCC.Cc1ccc(S(=O)(=O)[O-])cc1` [didecyldimethylammonium p-toluenesulfonate] the “Solubility / miscibility in water” value [9] was “insoluble in water and hexane” and the “Solubility in organic solvents / other media” value [9] was “soluble in chloroform, acetone, DMSO”.
With `CCCCC(CC)COC(=O)CC(C(=O)OCC(CC)CCCC)S(=O)(=O)O.CCN(CC)CC(=O)Nc1c(C)cccc1C` (stereo not drawn) [lidocaine docusate] the “Anesthetic ability (tail flick, % MPE graphs)” value [10] was “higher and longer anesthetic ability than lidocaine hydrochloride”.
“didecyldimethylammonium N-[4-[[(2-amino-1,4-dihydro-4-oxo-6-pteridinyl)methyl]amino]benzoyl]-L-glutamate” gave a Tonset [1] of 201 °C and a Tonset5% [1] of 153 °C.
